Experimental data from paper PMC1919488 (Nucleic Acids Research, 2007).
Where a chain is given by its changes, count along the chain named. Like-named read-outs stand apart in the source and are kept apart here.

Key:
[1] = biological target: T1, Rad51 (Saccharomyces cerevisiae, UniProt P25454, K191A); format: binding
T1 sequence (P25454 1-400 K191A): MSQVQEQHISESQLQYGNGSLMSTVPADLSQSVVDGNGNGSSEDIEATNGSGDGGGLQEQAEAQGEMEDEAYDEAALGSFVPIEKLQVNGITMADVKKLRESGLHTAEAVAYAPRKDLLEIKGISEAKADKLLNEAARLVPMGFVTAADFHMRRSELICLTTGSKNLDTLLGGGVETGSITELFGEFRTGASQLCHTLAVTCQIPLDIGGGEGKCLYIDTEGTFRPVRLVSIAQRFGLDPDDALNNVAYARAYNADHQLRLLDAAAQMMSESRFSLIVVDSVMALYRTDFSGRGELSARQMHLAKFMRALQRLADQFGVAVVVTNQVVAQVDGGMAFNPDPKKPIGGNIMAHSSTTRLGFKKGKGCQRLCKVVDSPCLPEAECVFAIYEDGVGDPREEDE

[2] = biological target: T2, Rad51 (Saccharomyces cerevisiae, UniProt P25454, K191R); format: binding
T2 sequence (P25454 1-400 K191R): T1 sequence (P25454 1-400 K191A) with A191R

[3] = biological target: T3, Rad51 (Saccharomyces cerevisiae, UniProt P25454); format: binding
T3 sequence (P25454 1-400): T1 sequence (P25454 1-400 K191A) with A191K

[4] = biological target: T1, Rad51; assay: biochemical
[5] = biological target: T3, Rad51; assay: biochemical
[6] = biological target: T2, Rad51; assay: biochemical

Compound | Kd [1] [µM] | Kd [2] [µM] | Kd [3] [µM] | Kd [4] [µM] | Kd [5] [µM] | Kd [6] [µM]
[N-]=[N+]=Nc1nc2c(N)ncnc2n1[C@@H]1O[C@H](COP(=O)(O)OP(=O)(O)OP(=O)(O)O)[C@@H](O)[C@H]1O [8-Azido-ATP] | 73.7 ± 35.6 | 26.9 ± 10.3 | 10.2 ± 5.1 | – | – | –
Nc1ncnc2c1ncn2[C@@H]1O[C@H](COP(=O)(O)OP(=O)(O)OP(=O)(O)O)[C@@H](O)[C@H]1O [ATP] | – | – | – | 34.2 ± 25.8 | 8.8 ± 4.5 | 52.5 ± 18.2
